For the assay, the target named is T1, N-terminal HiBiT tagged BCL6 (Homo sapiens, UniProt P41182).
T1 construct: expressed in transfected cells; host or cells: HT1080 (ATCC CCL-121), stably transduced with lentivirus pLV-UBC-N-HiBiT-BCL6-PGK-puro
The experiment in a line: HiBiT based degradation assay. The class given is cell-based. The note with it: HT1080 cells expressing N-terminal HiBiT tagged BCL6, 5 hours of incubation; for Ymin (5 hr): BCL6 degradation normalized with DMSO control; for DC50: four-parameter logistic model, read-out: EC50 (5 hr). In a few lines:
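Degradation measured by luminescence from the Nano-Glo HiBiT lytic reagent (15 min, room temperature), normalized to DMSO controls and fitted to a four-parameter curve.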
On the technique in general: With HiBiT, luminescence reflects the tagged protein that the partner subunit can reach.

SMILES strings stand for the structures.

In the case of `CNC(=O)COc1cc2cc(Nc3nc(N4CC[C@@H](CN5CCN(c6ccc7c(C8CCC(=O)NC8=O)nn(C)c7c6)CC5)[C@@H](C)C4)ncc3Cl)cnc2n(C(C)C)c1=O` (stereo partly drawn) [Compound 176c, 2-((6-((5-chloro-2-((3R,4R)-4-((4-(3-(2,6-dioxopiperidin-3-yl)-1-methyl-1H-indazol-6-yl)piperazin-1-yl)methyl)-3-methylpiperidin-1-yl)pyrimidin-4-yl)amino)-1-isopropyl-2-oxo-1,2-dihydro-1,8-naphthyridin-3-yl)oxy)-N-methylacetamide], the “Ymin (5 hr)” value is given as “+++ (30% ≤ Ymin < 50%)” and the DC50 lay within 10 to 100 nM.

As to `CNC(=O)COc1cc2cc(Nc3nc(N4CC[C@@H](CN5CCN(c6ccc7c(C8CCC(=O)NC8=O)nn(C)c7c6)CC5)[C@H](C)C4)ncc3Cl)cnc2n(C(C)C)c1=O` (stereo partly drawn) [Compound 176d, 2-[[6-[[5-chloro-2-[(3S,4R)-4-[[4-[3-(2,6-dioxo-3-piperidyl)-1-methyl-indazol-6-yl]piperazin-1-yl]methyl]-3-methyl-1-piperidyl]pyrimidin-4-yl]amino]-1-isopropyl-2-oxo-1,8-naphthyridin-3-yl]oxy]-N-methyl-acetamide], the “Ymin (5 hr)” value is given as “+++ (30% ≤ Ymin < 50%)” and the DC50 was under 10 nM.

Take `CNC(=O)COc1cc2cc(Nc3nc(N4CC[C@H](CN5CCN(c6cccc7c(C8CCC(=O)NC8=O)nn(C)c67)CC5)[C@H](C)C4)ncc3Cl)cnc2n(C(C)C)c1=O` (stereo partly drawn) [Compound 177a, 2-((6-((5-chloro-2-((3S,4S)-4-((4-(3-(2,6-dioxopiperidin-3-yl)-1-methyl-1H-indazol-7-yl)piperazin-1-yl)methyl)-3-methylpiperidin-1-yl)pyrimidin-4-yl)amino)-1-isopropyl-2-oxo-1,2-dihydro-1,8-naphthyridin-3-yl)oxy)-N-methylacetamide]: the “Ymin (5 hr)” value was “++++ (Ymin < 30%)” and the DC50 lay in the range of 10 to 100 nM.

Regarding `CNC(=O)COc1cc2cc(Nc3nc(N4CC[C@@H](CN5CCN(c6cccc7c(C8CCC(=O)NC8=O)nn(C)c67)CC5)[C@@H](C)C4)ncc3Cl)cnc2n(C(C)C)c1=O` (stereo partly drawn) [Compound 177b, 2-[[6-[[5-chloro-2-[(3R,4R)-4-[[4-[3-(2,6-dioxo-3-piperidyl)-1-methyl-indazol-7-yl]piperazin-1-yl]methyl]-3-methyl-1-piperidyl]pyrimidin-4-yl]amino]-1-isopropyl-2-oxo-1,8-naphthyridin-3-yl]oxy]-N-methyl-acetamide], the “Ymin (5 hr)” value is “+++ (30% ≤ Ymin < 50%)” and the DC50 fell in the range of 10 to 100 nM.

For `CNC(=O)COc1cc2cc(Nc3nc(N4CC[C@@H](CN5CCN(c6cccc7c(C8CCC(=O)NC8=O)nn(C)c67)CC5)[C@H](C)C4)ncc3Cl)cnc2n(C(C)C)c1=O` (stereo partly drawn) [Compound 177c, 2-[[6-[[5-chloro-2-[(3S,4R)-4-[[4-[3-(2,6-dioxo-3-piperidyl)-1-methyl-indazol-7-yl]piperazin-1-yl]methyl]-3-methyl-1-piperidyl]pyrimidin-4-yl]amino]-1-isopropyl-2-oxo-1,8-naphthyridin-3-yl]oxy]-N-methyl-acetamide], the “Ymin (5 hr)” value is reported as “+++ (30% ≤ Ymin < 50%)” and the DC50 was 100 to 1000 nM.

As for `CNC(=O)COc1cc2cc(Nc3nc(N4CC[C@H](CN5CCN(c6cccc7c(C8CCC(=O)NC8=O)nn(C)c67)CC5)[C@@H](C)C4)ncc3Cl)cnc2n(C(C)C)c1=O` (stereo partly drawn) [Compound 177d, 2-((6-((5-chloro-2-((3R,4S)-4-((4-(3-(2,6-dioxopiperidin-3-yl)-1-methyl-1H-indazol-7-yl)piperazin-1-yl)methyl)-3-methylpiperidin-1-yl)pyrimidin-4-yl)amino)-1-isopropyl-2-oxo-1,2-dihydro-1,8-naphthyridin-3-yl)oxy)-N-methylacetamide], the “Ymin (5 hr)” value is recorded as “++++ (Ymin < 30%)” and the DC50 fell in the range of 10 to 100 nM.

As to `CNC(=O)COc1cc2cc(Nc3nc(N4CCC(O)(CN5CCN(c6cccc7c(C8CCC(=O)NC8=O)nn(C)c67)CC5)CC4)ncc3Cl)cnc2n(C(C)C)c1=O` (centres unmarked) [Compound 178, 2-[[6-[[5-chloro-2-[4-[[4-[3-(2,6-dioxo-3-piperidyl)-1-methyl-indazol-7-yl]piperazin-1-yl]methyl]-4-hydroxy-1-piperidyl]pyrimidin-4-yl]amino]-1-isopropyl-2-oxo-1,8-naphthyridin-3-yl]oxy]-N-methyl-acetamide], the “Ymin (5 hr)” value is recorded as “+++ (30% ≤ Ymin < 50%)” and the DC50 is under 10 nM.

`CNC(=O)COc1cc2cc(Nc3nc(N4C[C@H](C)N(CC5CCN(c6cccc7c(C8CCC(=O)NC8=O)nn(C)c67)CC5)C[C@H]4C)ncc3Cl)cnc2n(C(C)C)c1=O` (stereo partly drawn) [Compound 179a, 2-[[6-[[5-chloro-2-[(2R,5S)-4-[[1-[3-(2,6-dioxo-3-piperidyl)-1-methyl-indazol-7-yl]-4-piperidyl]methyl]-2,5-dimethyl-piperazin-1-yl]pyrimidin-4-yl]amino]-1-isopropyl-2-oxo-1,8-naphthyridin-3-yl]oxy]-N-methyl-acetamide]: the “Ymin (5 hr)” value was “+++ (30% ≤ Ymin < 50%)” and the DC50 lay in the range of 100 to 1000 nM.

Regarding `CNC(=O)COc1cc2cc(Nc3nc(N4C[C@@H](C)N(CC5CCN(c6cccc7c(C8CCC(=O)NC8=O)nn(C)c67)CC5)C[C@@H]4C)ncc3Cl)cnc2n(C(C)C)c1=O` (stereo partly drawn) [Compound 179b, 2-[[6-[[5-chloro-2-[(2S,5R)-4-[[1-[3-(2,6-dioxo-3-piperidyl)-1-methyl-indazol-7-yl]-4-piperidyl]methyl]-2,5-dimethyl-piperazin-1-yl]pyrimidin-4-yl]amino]-1-isopropyl-2-oxo-1,8-naphthyridin-3-yl]oxy]-N-methyl-acetamide], the “Ymin (5 hr)” value is “+++ (30% ≤ Ymin < 50%)” and the DC50 was in the range of 100 to 1000 nM.

In the case of `CNC(=O)COc1cc2cc(Nc3nc(N4CC5(CCC(Oc6cccc7c(C8CCC(=O)NC8=O)nn(C)c67)CC5)C4)ncc3Cl)cnc2n(C(C)C)c1=O` (centres unmarked) [Compound 181, 2-[[6-[[5-chloro-2-[7-[3-(2,6-dioxo-3-piperidyl)-1-methyl-indazol-7-yl]oxy-2-azaspiro[3.5]nonan-2-yl]pyrimidin-4-yl]amino]-1-isopropyl-2-oxo-1,8-naphthyridin-3-yl]oxy]-N-methyl-acetamide], the “Ymin (5 hr)” value was “+++ (30% ≤ Ymin < 50%)” and the DC50 lay within 10 to 100 nM.

For the compound `CNC(=O)COc1cc2cc(Nc3nc(N4CC5(CCC(Nc6ccc7c(C8CCC(=O)NC8=O)nn(C)c7c6)CC5)C4)ncc3Cl)cnc2n(C(C)C)c1=O` (centres unmarked) [Compound 182, 2-((6-((5-chloro-2-(7-((3-(2,6-dioxopiperidin-3-yl)-1-methyl-1H-indazol-6-yl)amino)-2-azaspiro[3.5]nonan-2-yl)pyrimidin-4-yl)amino)-1-isopropyl-2-oxo-1,2-dihydro-1,8-naphthyridin-3-yl)oxy)-N-methylacetamide], the “Ymin (5 hr)” value is listed as “++++ (Ymin < 30%)” and the DC50 is under 10 nM.

With `CNC(=O)COc1cc2cc(Nc3nc(N4CC5(CCC(Oc6ccc7c(C8CCC(=O)NC8=O)nn(C)c7c6)CC5)C4)ncc3Cl)cnc2n(C(C)C)c1=O` (centres unmarked) [Compound 183, 2-[[6-[[5-chloro-2-[7-[3-(2,6-dioxo-3-piperidyl)-1-methyl-indazol-6-yl]oxy-2-azaspiro[3.5]nonan-2-yl]pyrimidin-4-yl]amino]-1-isopropyl-2-oxo-1,8-naphthyridin-3-yl]oxy]-N-methyl-acetamide], the “Ymin (5 hr)” value is on record as “++++ (Ymin < 30%)” and the DC50 is under 10 nM.

For `CNC(=O)COc1cc2cc(Nc3nc(N4CC5(CCC(Nc6cc7c(cc6F)c(C6CCC(=O)NC6=O)nn7C)CC5)C4)ncc3Cl)cnc2n(C(C)C)c1=O` (centres unmarked) [Compound 184, 2-[[6-[[5-chloro-2-[7-[[3-(2,6-dioxo-3-piperidyl)-5-fluoro-1-methyl-indazol-6-yl]amino]-2-azaspiro[3.5]nonan-2-yl]pyrimidin-4-yl]amino]-1-isopropyl-2-oxo-1,8-naphthyridin-3-yl]oxy]-N-methyl-acetamide], the “Ymin (5 hr)” value is reported as “++++ (Ymin < 30%)” and the DC50 was under 10 nM.

In the case of `CNC(=O)COc1cc2cc(Nc3nc(N4CCN(CC5CCN(c6cccc7c(C8CCC(=O)NC8=O)nn(C)c67)CC5)CC4)ncc3Cl)cnc2n(CCO)c1=O` (centres unmarked) [Compound 186, 2-((6-((5-chloro-2-(4-((1-(3-(2,6-dioxopiperidin-3-yl)-1-methyl-1H-indazol-7-yl)piperidin-4-yl)methyl)piperazin-1-yl)pyrimidin-4-yl)amino)-1-(2-hydroxyethyl)-2-oxo-1,2-dihydro-1,8-naphthyridin-3-yl)oxy)-N-methylacetamide], the “Ymin (5 hr)” value is “++++ (Ymin < 30%)” and the DC50 was 10 to 100 nM.

In the case of `CNC(=O)COc1cc2cc(Nc3nc(N4CCC(CN5CC6CC(C5)N6c5cccc6c(C7CCC(=O)NC7=O)nn(C)c56)CC4)ncc3Cl)cnc2n(C(C)C)c1=O` (centres unmarked) [Compound 187, 2-[[6-[[5-chloro-2-[4-[[6-[3-(2,6-dioxo-3-piperidyl)-1-methyl-indazol-7-yl]-3,6-diazabicyclo[3.1.1]heptan-3-yl]methyl]-1-piperidyl]pyrimidin-4-yl]amino]-1-isopropyl-2-oxo-1,8-naphthyridin-3-yl]oxy]-N-methyl-acetamide], the “Ymin (5 hr)” value is given as “+++ (30% ≤ Ymin < 50%)” and the DC50 is 10 to 100 nM.

Consider `CNC(=O)COc1cc2cc(Nc3nc(N4CCC(CN5CCN(c6cccc7c(C8CCC(=O)NC8=O)nn(C)c67)C[C@H]5C)CC4)ncc3F)cnc2n(C(C)C)c1=O` (stereo partly drawn) [Compound 188a, 2-[[6-[[2-[4-[[(2R)-4-[3-(2,6-dioxo-3-piperidyl)-1-methyl-indazol-7-yl]-2-methyl-piperazin-1-yl]methyl]-1-piperidyl]-5-fluoro-pyrimidin-4-yl]amino]-1-isopropyl-2-oxo-1,8-naphthyridin-3-yl]oxy]-N-methyl-acetamide], for which the “Ymin (5 hr)” value is recorded as “+++ (30% ≤ Ymin < 50%)” and the DC50 lay in the range of 10 to 100 nM.

The values are drawn from patent US20260241012A1, “1,8-NAPHTHYRIDIN-2-ONE HETEROBIFUNCTIONAL BCL6 DEGRADERS” (Treeline Biosciences, Inc., priority 2022, published 2026).
